Laboratory results published in patent publication US20170014391A1, “SGK1 INHIBITORS FOR TREATMENT OF PROSTATE CANCER” (Sloan-Kettering Institute for Cancer Research, priority 2013, published 2017).
Where “and” joins values, the source holds several entries; their conditions need not be identical. Identical values can stand only once.

Key:
[1] = system: AR target gene expression; assay: AR target gene expression with GR antagonists; format: cell-based
GR [2] = target: GR (Homo sapiens, UniProt P04150); conditions: patients with Cushing syndrome; cited from earlier work
Sequence of GR (Homo sapiens, UniProt P04150) (P04150 whole entry): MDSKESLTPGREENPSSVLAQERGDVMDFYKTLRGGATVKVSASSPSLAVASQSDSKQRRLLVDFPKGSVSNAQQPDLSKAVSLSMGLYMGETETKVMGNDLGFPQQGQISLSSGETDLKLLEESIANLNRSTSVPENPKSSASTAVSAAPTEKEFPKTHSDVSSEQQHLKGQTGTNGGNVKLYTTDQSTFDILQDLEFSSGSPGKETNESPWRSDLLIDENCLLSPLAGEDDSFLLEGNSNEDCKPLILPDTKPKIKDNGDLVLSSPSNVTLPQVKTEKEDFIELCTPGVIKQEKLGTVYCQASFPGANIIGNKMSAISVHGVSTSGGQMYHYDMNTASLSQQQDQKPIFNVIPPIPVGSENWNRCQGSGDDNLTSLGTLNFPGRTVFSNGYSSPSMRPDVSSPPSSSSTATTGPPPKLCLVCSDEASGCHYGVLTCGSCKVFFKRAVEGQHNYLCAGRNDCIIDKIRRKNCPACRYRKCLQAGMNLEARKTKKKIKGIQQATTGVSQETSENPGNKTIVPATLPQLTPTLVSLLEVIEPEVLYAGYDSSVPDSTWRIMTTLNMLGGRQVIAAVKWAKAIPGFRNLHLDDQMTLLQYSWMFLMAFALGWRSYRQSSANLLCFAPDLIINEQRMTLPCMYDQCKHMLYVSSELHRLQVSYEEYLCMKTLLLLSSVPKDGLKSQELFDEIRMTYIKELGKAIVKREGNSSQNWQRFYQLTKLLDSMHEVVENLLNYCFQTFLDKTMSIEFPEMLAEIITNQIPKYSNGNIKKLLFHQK

[3] = system: AR target genes in LREX′ cell line; assay: Expression of AR target genes in LREX′ cell line (RT-qPCR); format: cell-based
Text: A. Normalized expression array signal (Illumina HT-12) of a suite of 74 AR target genes in control (n=10), 4 day (n=8), and LREX′ (n=8, right) xenograft tumors. Genes are ranked by degree of restoration of expression in resistant tissue ((Res-4 day)/(Control-4 day)). All resistant tissues were continued on anti-androgen treatment through time of harvest. B. Fractional restoration values of each of the 74 AR targets in LREX′ xenografts (n=8) or resistant tissues from the validation cohort (n=12, see also FIG. S3). C. GR mRNA in resistant tissues used in B. D. Expression of AR target genes in the LREX′ cell line in steroid depleted media after 8 hours of treatment with the indicated agonists, in vitro. Enzalutamide=10 micromolar, V=Vehicle.+/−s.e.m. See also FIGS. S3, S4.
A. LnCaP/AR cells engineered to express GFP or GR were treated with indicated drugs. […] D. Control or AR siRNA knock-down in LREX′ followed by treatment with indicated drugs. […] Cells were treated in charcoal stripped media. Expression determined by RT-qPCR+/−s.e.m.
LREX′ cells were derived from a single enzalutamide resistant tumor that was harvested, disaggregated with collagenase treatment, and then maintained in RPMI supplemented with 20% FBS and 1 μM enzalutamide. Cells were initially grown on collagen-coated flasks until confluent and then were maintained on standard tissue culture dishes. CS1 were similarly derived from vehicle treated tumors and maintained in standard LNCaP/AR media. LNCaP/AR and LREX′ cells were cultured in phenol-red free RPMI with 10% charcoal-stripped FBS prior to drug treatments.
(§1) RNA was extracted from cell lines using the RNeasy kit (Qiagen). Frozen tumors were lysed with lysing matrix A using the Fast-Prep24 tissue homogenizer system (MP BIOMEDICALS) in Trizol (Invitrogen) followed by clean up with RNeasy (Qiagen). cDNA was generated with the High Capacity cDNA Reverse Transcription Kit (Applied Biosystems.) Data was quantified relative to either beta Actin or GAPDH expression and relative expression was generally plotted. Primers for ACTB (PPH00073E), NDRG1(PPH02202B), NR3C1(PPH02652A), and SGK1(PPH00387E), STK39 (PPH14239B), GRB10 (PPH05866B), TIPARP (PPH07883A), PMEPA1 (PPH01013B) were purchased from SA Biosciences. Other qPCR primers are as follows: […]

GR mRNA [4] = assay: GR mRNA in LREX′ cell line in vitro; format: cell-based
Text: (§2) A. GR mRNA in LREX′ xenografts. […] . […] C. […] AUC=area under curve. […] . […] See also FIG. S7.
as §1

[5] = in vivo; cited from earlier work
[6] = Tran et al., 2009; cited from earlier work
VCaP cells [7] = assay: VCaP in vitro growth assay (CellTiter-Glo); format: cell-based; conditions: Enz 10 micromolar, standard culture conditions
Method: Enz=10 micromolar, Dex=100 nM, CMP 15=1 micromolar. A. Western blot analysis of prostate cancer cell lines. B, C and D. Cell viability assessed by CellTiter-Glo (Promega) assay and normalized to day 1 value after indicated treatments+/−s.e.m. E. Confirmation of GR knock-down by western blot after infection with GR targeting shRNA. F. Apoptosis as assessed by cPARP western blot after 3 days of indicated treatment. G. A suite of AR targets relevant to VCaP was defined (see methods) and normalized expression of each gene after 24 hours of indicated drug treatments is depicted by heat map and ranked by degree of induction with Dex. H. Expression of the top two genes from […]. (KLK2 and FKBP5) after 24 hours of indicated treatments+/−s.e.m. See also FIG. S6.
Viability is plotted normalized to day 1.

PSA = assay: Maximal PSA decline in patients receiving enzalutamide; format: in vivo; conditions: enzalutamide 160 mg daily
[8] = system: GR protein in LREX′ cells; assay: Intracellular GR flow cytometric analysis of LREX′ cells
Method: (§3) E. Intracellular GR flow cytometric analysis of indicated cells at indicated times points.
(§4) Cells were re-suspended in Fixation/Permeabilization working solution (eBioscience; San Diego, Calif., USA) at a concentration of 1-2×10^6 cells/ml for 30 minutes at room temperature. The cells were subsequently stained with primary antibodies, Rabbit (DA1E) mAb IgG XP® Isotype Control, androgen receptor (D6F11) XP® Rabbit mAb, or glucocorticoid receptor (D6H2L) XP® Rabbit mAb (Cell Signaling Technology; Danvers, Mass., USA) for 20 minutes at room temperature. The cells were washed twice with Flow Cytometry Staining Buffer (eBioscience; San Diego, Calif., USA), and then stained with secondary antibody, Allophycocyanin-AffiniPure F(ab′)2 Fragment Donkey Anti-Rabbit IgG (Jackson ImmunoResearch Laboratories, Inc.; Westgrove, Pa., USA) for 20 minutes at room temperature. Following two more washes, the cells were re-suspended in Flow Cytometry Staining Buffer and analyzed by flow cytometry on a LSRII (BD Biosciences; San Jose, Calif., USA) using FlowJo software (Tree Star, Ashland, Oreg., USA). For GR staining, cells were maintained in their standard media and treated with dexamethasone for 20 minutes prior to harvest to fully expose antigen.

GR mRNA [9] = assay: GR mRNA in LREX′ xenografts after enzalutamide discontinuation; format: in vivo, mice; conditions: 8 days after discontinuation, after 7 weeks of 10 mg/kg
Text: as §2, §1

VCaP cells [10] = conditions: Tran et al., 2009; cited from earlier work
[11] = system: LNCaP/AR xenograft tumors; conditions: previously shown (Clegg et al., 2012; Tran et al., 2009); cited from earlier work
LnCaP/AR and sub-lines = assay: In vitro growth by cell counting (Vi-cell); conditions: 1 micromolar, FIG. S7B
Method: B. Relative cell numbers determined by cell counting (Vi-cell) of indicated cells with vehicle or 1 micro-molar enzalutamide treatment.
LnCaP/AR and sub-lines: Equivalent numbers of cells were plated and then harvested and counted in triplicate at indicated time points using the Beckman Coulter Vi-Cell XR. Cells were passaged at each time point and identical numbers of cells re-plated. Fold increase in cell numbers were determined for each time interval.

[12] = system: GR protein in CS1 or LnCaP/AR; assay: Intracellular GR flow cytometric analysis of CS1 or LnCaP/AR cells; conditions: enzalutamide 1 micromolar, 4 week experiment
Method: as §3, §4

DU145 and PC3 cells = conditions: AR-negative cells; cited from earlier work
GR mRNA (NR3C1) = assay: GR mRNA (RT-qPCR) in LNCaP/AR xenograft tumors, validation cohort; format: in vivo, mice; set-up: key: expression relative to beta-actin or GAPDH; conditions: individual tumor with acquired resistance to the drug (10 mg/kg), relative expression
Text: as §1

LREX′ cells = assay: Expression profiling (global transcriptome) of LREX′ cells; format: cell-based; conditions: enzalutamide 10 micromolar
GR [13] = assay: Bone marrow evaluation: GR IHC of tumor cells in patients receiving enzalutamide; format: in vivo; conditions: bone metastases, enzalutamide 160 mg daily
Method: Patients were treated with enzalutamide 160 mg daily. Bone marrow biopsy and aspirate (˜5 mL) were performed before treatment and at week 8. The bone marrow specimens were obtained by transiliac biopsy, and samples were processed according to standard MD Anderson Cancer Center decalcification and fixation procedures. After pathologic evaluation, samples were stored in the MD Anderson Cancer Center Prostate Cancer Tissue Bank. Imaging studies were performed at the time of suspected prostate cancer progression or at the treating physician's discretion, but generally not prior to 12 weeks post-treatment initiation. […] Retrospective analysis for GR was performed by IHC on […] formalin-fixed, paraffin-embedded bone marrow biopsy sections with anti-GR at a dilution of 1:200 (BD Transduction Laboratories #611227). A Dako autostainer and standard 3,3-diaminobenzidine were used. GR expression was assessed in a blinded fashion by two pathologists scoring at least 100 tumor cells per specimen. Plotted are either data from all specimens or only from patients with usable material at baseline and 8 weeks.

[14] = system: LNCaP/AR xenograft tumors; assay: LNCaP/AR xenografts in castrate mice, long-term antiandrogen treatment (pilot cohort); format: in vivo; conditions: for Mean Tumor Volume (mm^3): Day 0: 10 mg/kg oral gavage 5 days a week, start of treatment; for % Regression: D28 Mean: 10 mg/kg, day 28; for Mean Tumor Volume (mm^3) at harvest: harvest after progression on continued treatment; for Day of Harvest: Mean: tumors harvested after progression
[15] = steroid depleted media, 8 hours
[16] = enzalutamide 10 micromolar, 8 hours
[17] = LREX′^off, enzalutamide 1 micromolar

CC#C[C@]1(O)CC[C@H]2[C@@H]3CCC4=CC(=O)CCC4=C3[C@@H](c3ccc(N(C)C)cc3)C[C@@]21C [mefipristone]
effect on AR target gene expression [1]: activate | risk-benefit of GR inhibition in humans (GR [2]): acceptable risk-benefit profile

CC#C[C@]1(O)CCC2C3CCC4=CC(=O)CCC4=C3[C@@H](c3ccc4c(c3)OCO4)C[C@@]21C (stereo partly drawn) [ORG34517]
effect on AR target gene expression [1]: activate

C[C@]12CCC(=O)C[C@@H]1CC[C@@H]1[C@@H]2CC[C@]2(C)[C@@H](O)CC[C@@H]12 [DHT, dihydrotestosterone]
expression of 7 AR targets and PSA (8 genes) [3, 15]: regulated | expression of KLK3 (PSA) [3, 15]: comparably induced | GR mRNA levels after DHT exposure (GR mRNA [4]; charcoal stripped media, 8 hours): reduced

CC(C)C(=O)Nc1ccc([N+](=O)[O-])c(C(F)(F)F)c1 [flutamide]
Distribution: Protein-binding [5]: Distribution: Protein-binding: 90% | Excretion [5]: Urine, faeces (small amounts)

CNC(=O)c1ccc(N2C(=S)N(c3ccc(C#N)c(C(F)(F)F)c3)C(=O)C2(C)C)cc1F [enzalutamide]
half-life in mice [6]: prolonged half-life | growth of VCaP cells (VCaP cells [7]): inhibited growth | effect on Dex activity at AR target genes ([3]; enzalutamide 10 micromolar): did not notably affect | effect on DHT regulation of the 8 genes [3, 16]: blocked | good responders with maximal PSA decline greater than 50% (PSA; benefit for greater than 6 months): 11 of 13 | poor responders with maximal PSA decline greater than 50% (PSA; discontinued earlier than 6 months): 1 of 14 | half-life of exponential decay in median GR protein signal upon withdrawal ([8]; LREX′ after enzalutamide withdrawal): 182 h | GR expression after continued drug exposure for 7 weeks [8, 17]: clear shift in GR expression in essentially all cells | doubling time of GR expression on re-exposure [8, 17]: 6.8 days | time to plateau in loss of GR expression upon withdrawal ([8]; followed to 17 weeks): ≤ 7 weeks | drop of GR mRNA levels after treatment discontinuation (GR mRNA [9]): ~5 fold | GR mRNA levels after withdrawal in vitro (GR mRNA [4]; LREX′ passaged without enzalutamide, 23 days): dropped as early as 1 day after discontinuation and continued to decline throughout the 23 days | effect of co-treatment on DHT reduction of GR mRNA (GR mRNA [4]; [16]): reversed | sensitivity of VCaP cells in vitro (VCaP cells [10]): enzalutamide-sensitive | LNCaP/AR xenograft tumors during the first 28 days of treatment [11]: regress | antiproliferative effect in vitro (LnCaP/AR and sub-lines): weak antiproliferative effect | median GR expression intensity ([12]; cells not previously exposed): no change | area under the GR staining population [12]: did increase | sensitivity of DU145 and PC3 cells (DU145 and PC3 cells): resistant | GR mRNA Expression (GR mRNA (NR3C1); listed as Enz): 29.8 and 24.2 and 24.0 and 14.3 and 0.5 and 127.7 and 53.0 | effect on Dex-induced gene expression (heatmap) (LREX′ cells): not impacted | mean percentage of GR positive cells at 8 weeks, poor responders (GR [13]): 29% | percentage of GR-positive cells at 8 weeks, good responders (GR [13]): 10%

CNC(=O)c1ccc(N2C(=S)N(c3ccc(C#N)c(C(F)(F)F)c3)C(=O)C23CCC3)cc1F [RD162]
LNCaP/AR xenograft tumors during the first 28 days of treatment [11]: regress | Mean Tumor Volume (mm^3): Day 0 [14]: 379 mm^3 | % Regression: D28 Mean [14]: 80% | Mean Tumor Volume (mm^3) at harvest [14]: 554 mm^3 | Day of Harvest: Mean [14]: D173 days

CNC(=O)c1ccc(N2C(=S)N(c3cnc(C#N)c(C(F)(F)F)c3)C(=O)C23CCC3)cc1F [ARN-509]
LNCaP/AR xenograft tumors during the first 28 days of treatment [11]: regress | Mean Tumor Volume (mm^3): Day 0 [14]: 341 mm^3 | % Regression: D28 Mean [14]: 71% | Mean Tumor Volume (mm^3) at harvest [14]: 337 mm^3 | Day of Harvest: Mean [14]: D145 days | GR mRNA Expression (GR mRNA (NR3C1); listed as ARN): 47.4 and 41.6 and 30.2 and 14.5 and 11.4 and 1.4 and 0.8 and 172.1 and 103.8
